Laboratory results reported in ChEMBL document CHEMBL5126521, “Analgesic Opioid Ligand Discovery Based on Nonmorphinan Scaffolds Derived from Natural Sources” (J Med Chem, 2022).
Square brackets hold non-standard residues; d marks the D form. Peptide text beside a SMILES is read from it.

Assays:
[1] = target: Delta-type opioid receptor (Homo sapiens, UniProt P41143); assay: Displacement of [3H]DPDPE from human DOP expressed in CHO-K1 cell membrane incubated for 60 mins by Microscint-counting analysis; type: cell membranes
Delta-type opioid receptor (Homo sapiens, UniProt P41143), sequence (P41143 whole entry): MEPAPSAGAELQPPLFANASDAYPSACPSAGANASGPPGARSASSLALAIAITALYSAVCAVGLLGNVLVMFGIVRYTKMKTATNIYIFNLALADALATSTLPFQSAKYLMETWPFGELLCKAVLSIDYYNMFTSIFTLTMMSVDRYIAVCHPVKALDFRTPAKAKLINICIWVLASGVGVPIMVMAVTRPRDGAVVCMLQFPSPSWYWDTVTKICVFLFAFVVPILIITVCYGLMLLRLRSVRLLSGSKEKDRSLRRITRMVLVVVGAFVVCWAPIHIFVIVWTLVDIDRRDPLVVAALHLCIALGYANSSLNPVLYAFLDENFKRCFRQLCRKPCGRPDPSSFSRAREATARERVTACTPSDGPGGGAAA

[2] = target: T1, Mu-type opioid receptor (Homo sapiens, UniProt P35372); assay: Agonist activity at human MOP expressed in CHO-K1 cell membrane assessed as [35S]GTPgammaS binding; type: functional, cell membranes
T1 sequence (P35372 whole entry): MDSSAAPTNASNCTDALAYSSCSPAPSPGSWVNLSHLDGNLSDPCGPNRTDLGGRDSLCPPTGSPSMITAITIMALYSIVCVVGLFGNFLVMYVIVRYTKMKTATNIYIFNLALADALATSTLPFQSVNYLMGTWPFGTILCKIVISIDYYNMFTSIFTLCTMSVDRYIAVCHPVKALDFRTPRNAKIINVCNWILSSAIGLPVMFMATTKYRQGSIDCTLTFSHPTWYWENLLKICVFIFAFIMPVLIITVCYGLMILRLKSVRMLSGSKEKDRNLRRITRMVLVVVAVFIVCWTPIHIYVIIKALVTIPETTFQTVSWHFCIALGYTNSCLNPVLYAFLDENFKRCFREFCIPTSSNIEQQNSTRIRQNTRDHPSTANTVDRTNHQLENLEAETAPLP

[3] = Stability in human plasma assessed as half life; type: ADME, cell-free
[4] = Stability in rat plasma assessed as half life; type: ADME, cell-free
[5] = target: T1, Mu-type opioid receptor; assay: Displacement of [3H]DAMGO from human MOP expressed in CHO-K1 cell membrane incubated for 60 mins by Microscint-counting analysis; type: cell membranes
[6] = target: T1, Mu-type opioid receptor; assay: Agonist activity at human MOP expressed in CHO-K1 cell membrane assessed as [35S]GTPgammaS binding relative to control; type: functional, cell membranes; conditions: filed as agonist
[7] = test system: Rattus norvegicus; assay: Antinociceptive activity in Sprague-Dawley rat assessed as tail flick response in warm water administered iv; type: functional
[8] = test system: Rattus norvegicus; assay: Antinociceptive activity in Sprague-Dawley rat assessed as tail flick response in warm water administered icv; type: functional
[9] = target: T2, Kappa-type opioid receptor (Homo sapiens, UniProt P41145); assay: Displacement of [3H]U69593 from human KOP expressed in CHO-K1 cell membrane incubated for 60 mins by Microscint-counting analysis; type: cell membranes
T2 sequence (P41145 whole entry): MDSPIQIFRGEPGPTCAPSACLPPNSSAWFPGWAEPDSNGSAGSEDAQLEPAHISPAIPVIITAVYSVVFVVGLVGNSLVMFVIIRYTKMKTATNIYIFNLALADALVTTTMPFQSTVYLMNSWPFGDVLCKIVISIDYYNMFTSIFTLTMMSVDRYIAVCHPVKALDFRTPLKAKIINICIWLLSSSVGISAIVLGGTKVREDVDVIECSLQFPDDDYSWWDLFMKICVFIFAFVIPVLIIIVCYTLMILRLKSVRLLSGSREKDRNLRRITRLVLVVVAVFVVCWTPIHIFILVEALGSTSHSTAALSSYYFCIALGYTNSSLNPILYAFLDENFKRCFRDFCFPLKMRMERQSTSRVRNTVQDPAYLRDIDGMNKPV

[10] = target: Mu-type opioid receptor (Rattus norvegicus, UniProt P33535); assay: Displacement of [3H]DAMGO from rat MOP stably expressed in CHO cell membrane; type: cell membranes
Mu-type opioid receptor (Rattus norvegicus, UniProt P33535), sequence (P33535 whole entry): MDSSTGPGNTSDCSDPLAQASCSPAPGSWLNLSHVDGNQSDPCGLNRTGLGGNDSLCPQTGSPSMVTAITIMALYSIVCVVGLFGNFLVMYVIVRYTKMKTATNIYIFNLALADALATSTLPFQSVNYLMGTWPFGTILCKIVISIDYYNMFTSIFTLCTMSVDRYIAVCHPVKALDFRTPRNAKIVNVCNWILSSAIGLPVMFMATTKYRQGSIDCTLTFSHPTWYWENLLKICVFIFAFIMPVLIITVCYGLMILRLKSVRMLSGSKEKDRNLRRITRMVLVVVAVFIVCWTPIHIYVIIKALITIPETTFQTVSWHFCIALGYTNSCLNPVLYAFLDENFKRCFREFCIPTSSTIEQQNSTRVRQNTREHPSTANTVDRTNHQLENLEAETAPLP

[11] = target: T2, Kappa-type opioid receptor; assay: Binding affinity to human KOP stably expressed in CHO cell membrane assessed as [35S]GTPgammaS binding; type: cell membranes; conditions: filed as antagonist
[12] = target: Kappa-type opioid receptor (Rattus norvegicus, UniProt P34975); assay: Displacement of [3H]diprenorphine from rat KOP stably expressed in CHO cell membrane; type: cell membranes
Kappa-type opioid receptor (Rattus norvegicus, UniProt P34975), sequence (P34975 whole entry): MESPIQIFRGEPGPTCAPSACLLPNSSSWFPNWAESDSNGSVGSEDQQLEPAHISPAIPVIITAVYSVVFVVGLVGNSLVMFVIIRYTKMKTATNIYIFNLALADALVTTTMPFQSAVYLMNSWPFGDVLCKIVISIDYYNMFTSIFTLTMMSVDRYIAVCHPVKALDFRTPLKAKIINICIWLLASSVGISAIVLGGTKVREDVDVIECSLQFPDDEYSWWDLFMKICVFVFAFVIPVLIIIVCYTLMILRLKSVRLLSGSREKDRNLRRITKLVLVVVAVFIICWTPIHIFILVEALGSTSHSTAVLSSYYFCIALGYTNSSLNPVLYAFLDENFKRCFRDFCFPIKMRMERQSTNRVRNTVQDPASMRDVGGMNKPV

[13] = target: T1, Mu-type opioid receptor; assay: Antagonist activity at human MOP stably expressed in CHO cell membrane assessed as [35S]GTPgammaS binding; type: functional, cell membranes
[14] = test system: Mus musculus; assay: Antinociceptive activity in icv dosed C57BL/6J mouse assessed as tail withdrawal latency from warm water; type: functional
[15] = target: Mu-type opioid receptor (Cavia porcellus, UniProt P97266); assay: Antagonist activity at guinea pig ileum MOP; type: functional, tissue-based
Mu-type opioid receptor (Cavia porcellus, UniProt P97266), sequence (P97266 whole entry): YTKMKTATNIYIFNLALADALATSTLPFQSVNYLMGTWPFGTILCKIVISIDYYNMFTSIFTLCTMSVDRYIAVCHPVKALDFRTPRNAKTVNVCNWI

[16] = test system: Mus musculus; assay: Antinociceptive activity in mouse administered icv; type: functional
[17] = organism: Mus musculus; assay: Antinociceptive activity in mouse by tail pressure test; type: functional
[18] = test system: Mus musculus; assay: Antinociceptive activity in mouse administered IT by tail pressure test; type: functional
[19] = test system: Rattus norvegicus; assay: Antinociceptive activity in Sprague-Dawley rat assessed as tail flick response in warm water administered po; type: functional
[20] = target: T3, Delta-type opioid receptor (Mus musculus, UniProt P32300); assay: Displacement of [3H]DPDPE from mouse DOP stably expressed in CHO cell membrane; type: cell membranes
T3 sequence (P32300 whole entry): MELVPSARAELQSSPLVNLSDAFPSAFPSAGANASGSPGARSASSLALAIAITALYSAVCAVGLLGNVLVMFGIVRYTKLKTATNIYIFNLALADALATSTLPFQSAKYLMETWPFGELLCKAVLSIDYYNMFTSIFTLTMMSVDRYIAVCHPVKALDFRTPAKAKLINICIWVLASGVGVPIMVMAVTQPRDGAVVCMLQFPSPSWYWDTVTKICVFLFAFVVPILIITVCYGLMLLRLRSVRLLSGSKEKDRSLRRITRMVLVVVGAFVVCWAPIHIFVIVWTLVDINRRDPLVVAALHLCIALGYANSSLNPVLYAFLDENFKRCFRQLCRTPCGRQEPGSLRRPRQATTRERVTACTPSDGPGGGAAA

[21] = target: T2, Kappa-type opioid receptor; assay: Antagonist activity at human KOP stably expressed in CHO cell membrane assessed as [35S]GTPgammaS binding; type: functional, cell membranes
[22] = Toxicity in rat assessed as antinociceptive activity tolerance at 3 to10 nmol/kg measured after 5 days with 62 pmol/h icv infusion relative to control; conditions: in vivo, icv_or_intrathecal, 120 h, at 10 nmol/kg, time 5 day
[23] = test system: Mus musculus; assay: Antinociceptive activity in mouse administered IV; type: functional
[24] = target: T4, Mu-type opioid receptor (Mus musculus, UniProt P42866); assay: Antagonist activity at mouse brain homogenate MOP; type: functional, tissue-based
T4 sequence (P42866 whole entry): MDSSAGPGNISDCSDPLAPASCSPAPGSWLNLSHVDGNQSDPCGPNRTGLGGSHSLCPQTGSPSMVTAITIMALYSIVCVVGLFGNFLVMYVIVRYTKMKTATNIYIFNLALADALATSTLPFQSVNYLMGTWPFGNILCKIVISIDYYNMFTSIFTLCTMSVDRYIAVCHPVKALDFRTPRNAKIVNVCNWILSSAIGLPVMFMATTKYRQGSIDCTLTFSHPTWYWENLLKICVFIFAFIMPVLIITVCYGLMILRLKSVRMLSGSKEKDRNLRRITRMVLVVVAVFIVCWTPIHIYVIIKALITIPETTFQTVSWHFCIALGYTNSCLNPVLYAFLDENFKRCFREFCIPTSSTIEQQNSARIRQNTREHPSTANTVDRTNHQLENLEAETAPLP

[25] = organism: Rattus norvegicus; assay: Antinociceptive activity in rat; type: functional; conditions: Rattus norvegicus; read-out: ED50
[26] = target: T4, Mu-type opioid receptor; assay: Antagonist activity at mouse vas deferns MOP; type: functional
[27] = test system: Rattus norvegicus; assay: Antinociceptive activity in rat administered icv; type: functional
[28] = test system: Mus musculus; assay: Antinociceptive activity in mouse administered iv by hot plate test; type: functional
[29] = test system: Mus musculus; assay: Antinociceptive activity in mouse administered po by tail pressure test; type: functional
[30] = test system: Mus musculus; assay: Antinociceptive activity in mouse administered sc by tail pressure test; type: functional
[31] = target: T3, Delta-type opioid receptor; assay: Displacement of [3H]deltorphin-II from mouse spinal cord DOP measured after 60 mins by liquid scintillation counter analysis; type: tissue-based
[32] = organism: Mus musculus; assay: Antinociceptive activity in mouse […]; type: functional; conditions: time 2 hrs
[33] = target: Kappa-type opioid receptor (Mus musculus, UniProt P33534); assay: Displacement of [3H]U-69593 from mouse spinal cord KOP measured after 60 mins by liquid scintillation counter analysis; type: tissue-based
Kappa-type opioid receptor (Mus musculus, UniProt P33534), sequence (P33534 whole entry): as the sequence (P34975 whole entry) above, with E11D, A17S, P51S, V308A counted along it

[34] = target: T4, Mu-type opioid receptor; assay: Displacement of [3H]DAMGO from mouse spinal cord MOP measured after 60 mins by liquid scintillation counter analysis; type: tissue-based
[35] = test system: Mus musculus; assay: Antinociceptive activity in mouse administered IT; type: functional
[36] = target: T3, Delta-type opioid receptor; assay: Displacement of [3H]DPDPE from mouse brain cerebellum DOP incubated for 2 hrs by liquid scintillation counter analysis; type: tissue-based
[37] = target: T4, Mu-type opioid receptor; assay: Displacement of [3H]DAMGO from mouse brain cerebellum MOP incubated for 2 hrs by liquid scintillation counter analysis; type: tissue-based
[38] = test system: Mus musculus; assay: Antinociceptive activity in mouse administered po; type: functional
[39] = test system: Mus musculus; assay: Antinociceptive activity in mouse administered sc; type: functional

NC(=O)CNC(=O)[C@@H]1CCC(=O)NCCCC[C@@H](NC(=O)[C@@H](N)Cc2ccc(O)cc2)C(=O)N[C@@H](Cc2c[nH]c3ccccc23)C(=O)N[C@@H](Cc2ccccc2)C(=O)N1
Ki [1]: 127 nM
EC50 [2]: 1.01 nM
half-life [3]: 150 h
half-life [4]: 81 h
Ki [5]: 0.68 nM
Emax [6]: 100%
ED50 [7]: 1.5 mg/kg
ED50 [8]: 0.019 nmol
Ki [9]: 5120 nM

C[C@@H]1C(=O)N[C@@H](Cc2ccccc2)C(=O)N[C@H](Cc2c[nH]c3ccccc23)C(=O)N[C@@H](Cc2ccccc2)C(=O)N1C
Ki [10]: 257 nM
Kb [11]: 103 nM
Ki [12]: 76.9 nM
IC50 [13]: 321 nM
ED50 [14]: 4.19 nmol

N=C(N)NCCC[C@@H](NC(=O)[C@@H](N)Cc1ccc(O)cc1)C(=O)N[C@@H](Cc1ccccc1)C(=O)NCC(=O)O (H-Y[dR]FG-OH)
IC50 [15]: 10.8 nM
ED50 [16]: 10.3 pmol
ED50 [17]: 5.8 pmol
ED50 [18]: 1 pmol

NC(=O)[C@@H]1CCCCNC(=O)CC[C@@H](NC(=O)[C@@H](N)Cc2ccc(O)cc2)C(=O)N[C@@H](Cc2ccccc2)C(=O)N[C@@H](Cc2ccccc2)C(=O)N1
Ki [1]: 82 nM
ED50 [19]: 3.5 µmol
EC50 [2]: 1.5 nM
Ki [5]: 0.96 nM

C[C@@H]1NC(=O)[C@H]2CCCN2C(=O)[C@H](Cc2ccccc2)NC(=O)[C@@H](Cc2c[nH]c3ccccc23)NC1=O
Ki [10]: 299 nM
Ki [12]: 167 nM
IC50 [13]: 1470 nM
Ki [20]: 10000 nM
ED50 [14]: 1.04 nmol
IC50 [21]: 397 nM

C[C@@H](NC(=O)[C@@H](N)Cc1ccc(O)cc1)C(=O)N[C@@H](Cc1ccccc1)C(=O)NCC(=O)N[C@@H](Cc1ccc(O)cc1)C(=O)N1CCC[C@H]1C(=O)N[C@@H](CO)C(N)=O [DERMORPHIN]
Activity [22]: 63%
ED50 [23]: 0.46 µmol/kg
IC50 [24]: 0.76 nM
ED50 [25]: 1.5 µmol/kg
IC50 [26]: 16.5 nM
IC50 [15]: 1.1 nM
ED50 [27]: 23 pmol
ED50 [28]: 1 µmol/kg
ED50 [16]: 6.7 pmol
ED50 ([17]; Mus musculus, read-out: ED50): 4.6 µmol/kg

CN(CCC(=O)O)C(=O)[C@H](Cc1ccccc1)NC(=O)[C@@H](CCCNC(=N)N)NC(=O)[C@H](Cc1ccc(O)cc1)NC(=N)N
ED50 [29]: 5.8 mg/kg
ED50 [30]: 0.09 mg/kg
Ki [31]: > 1000 nM
ED50 [32]: 0.07 mg/kg
Ki [33]: > 1000 nM
Ki [34]: 12.9 nM

N=C(N)NCCC[C@@H](NC(=O)[C@H](Cc1ccc(O)cc1)NC(=N)N)C(=O)N[C@@H](Cc1ccccc1)C(=O)NCCC(=O)O
ED50 [35]: 0.34 pmol
Ki [36]: 160 nM
Ki [37]: 0.67 nM
Ki [31]: > 1000 nM
ED50 [38]: 19 mg/kg
Ki [33]: > 1000 nM
Ki [34]: 12.9 nM
ED50 [39]: 0.24 mg/kg
